Results taken from patent publication US7420056B2, “Substituted bicyclic imidazo-3-ylamine compounds” (Gruenenthal GmbH, priority 2004, dated 2008).
Structures can show the parent of a compound that is named as a salt.

Each compound was assayed against mGluR5 receptor (Sus scrofa, UniProt I3LUI7) (assay: Affinity for the mGluR5 receptor: inhibition of 3[H]-MPEP binding in pig brain homogenate). Conditions: 3[H]-MPEP binding.
Sequence of mGluR5 receptor (I3LUI7 19-1212): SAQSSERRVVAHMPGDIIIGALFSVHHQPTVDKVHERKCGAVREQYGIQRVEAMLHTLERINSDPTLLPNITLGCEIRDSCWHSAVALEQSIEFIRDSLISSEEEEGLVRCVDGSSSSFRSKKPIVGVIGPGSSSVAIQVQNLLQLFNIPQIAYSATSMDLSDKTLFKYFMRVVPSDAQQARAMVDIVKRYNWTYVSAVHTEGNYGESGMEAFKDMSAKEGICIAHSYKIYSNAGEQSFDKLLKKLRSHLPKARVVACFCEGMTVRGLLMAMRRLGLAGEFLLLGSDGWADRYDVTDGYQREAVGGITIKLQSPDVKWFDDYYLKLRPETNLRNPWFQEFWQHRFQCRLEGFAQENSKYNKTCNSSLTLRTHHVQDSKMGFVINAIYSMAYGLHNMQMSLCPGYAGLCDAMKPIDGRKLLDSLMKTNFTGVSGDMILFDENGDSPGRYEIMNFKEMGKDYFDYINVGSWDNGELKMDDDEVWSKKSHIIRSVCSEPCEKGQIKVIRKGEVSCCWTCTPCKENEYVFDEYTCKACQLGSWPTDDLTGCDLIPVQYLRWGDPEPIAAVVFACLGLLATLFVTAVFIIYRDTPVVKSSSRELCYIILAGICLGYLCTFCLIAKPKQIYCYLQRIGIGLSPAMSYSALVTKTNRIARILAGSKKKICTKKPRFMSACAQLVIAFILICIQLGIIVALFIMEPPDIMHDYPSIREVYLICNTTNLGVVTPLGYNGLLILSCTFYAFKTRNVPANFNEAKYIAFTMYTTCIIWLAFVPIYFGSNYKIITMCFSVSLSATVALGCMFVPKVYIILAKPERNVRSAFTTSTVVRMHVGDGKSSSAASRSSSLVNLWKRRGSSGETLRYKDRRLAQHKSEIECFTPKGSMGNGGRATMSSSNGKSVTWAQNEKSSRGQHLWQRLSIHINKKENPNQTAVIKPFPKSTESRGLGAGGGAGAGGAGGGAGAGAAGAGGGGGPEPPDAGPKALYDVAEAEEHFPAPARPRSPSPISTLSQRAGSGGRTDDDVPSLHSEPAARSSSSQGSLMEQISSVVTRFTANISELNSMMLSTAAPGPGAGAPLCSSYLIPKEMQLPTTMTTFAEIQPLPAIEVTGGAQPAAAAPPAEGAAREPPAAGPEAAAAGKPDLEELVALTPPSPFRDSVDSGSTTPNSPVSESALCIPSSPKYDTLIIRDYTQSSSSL
Procedure, shortened: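 Pig brain membranes (450 μg protein; hemispheres without medulla, cerebellum and pons) in 30 mM Hepes pH 8.0 were incubated 60 min at room temperature with 5 nM [3H]-MPEP and compound at 10 μM. Bound radioactivity was filtered and counted. Nonspecific binding was defined with 10 μM MPEP.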
Work on `CC(C)(C)Nc1c(-c2cccc(C#Cc3ccccn3)c2)nc2cnccn12` [Example 111, N-tert-butyl-2-(3-(pyridin-2-ylethynyl)phenyl)imidazo[1,2-a]pyrazin-3-amine] yielded an IC50 of 1370 nM.
For `COc1ccccc1C#Cc1ccc(-c2nc3cnccn3c2NC(C)(C)C)s1` [Example 112, N-tert-butyl-2-(5-((2-methoxyphenyl)ethynyl)thiophen-2-yl)imidazo[1,2-a]pyrazin-3-amine hydrochloride], the IC50 was 7520 nM.
`COc1cccc(C#Cc2ccc(-c3nc4cnccn4c3NC(C)(C)C)s2)c1` [Example 113, N-tert-butyl-2-(5-((3-methoxyphenyl)ethynyl)thiophen-2-yl)imidazo[1,2-a]pyrazin-3-amine hydrochloride] showed an IC50 of 75 nM.
In the case of `COc1ccc(C#Cc2ccc(-c3nc4cnccn4c3NC(C)(C)C)s2)cc1` [Example 114, N-tert-butyl-2-(5-((4-methoxyphenyl)ethynyl)thiophen-2-yl)imidazo[1,2-a]pyrazin-3-amine hydrochloride], the IC50 is reported as 2110 nM.
For `CC(C)(C)Nc1c(-c2ccc(C#Cc3ccccc3)s2)nc2ccc3ccccc3n12` [Example 115, N-tert-butyl-2-(5-(phenylethynyl)thiophen-2-yl)imidazo[1,2-a]quinolin-1-amine], the IC50 was 7740 nM.
`Cc1cccc(C#Cc2cccc(-c3nc4cnccn4c3NC(C)(C)C)c2)n1` [Example 117, N-tert-butyl-2-(3-((6-methylpyridin-2-yl)ethynyl)phenyl)imidazo[1,2-a]pyrazin-3-amine] gave an IC50 of 880 nM.
`Cc1nc(C#Cc2ccccc2)ccc1-c1nc2cnccn2c1NC(C)(C)C` [Example 118, N-tert-butyl-2-(2-methyl-6-(phenylethynyl)pyridin-3-yl)imidazo[1,2-a]pyrazin-3-amine] was tested, and the IC50 was 6380 nM.
`CC(C)(C)Nc1c(-c2ccc(C#Cc3ccccn3)o2)nc2cnccn12` [Example 119, N-tert-butyl-2-(5-(pyridin-2-ylethynyl)furan-2-yl)imidazo[1,2-a]pyrazin-3-amine] gave an IC50 of 36 nM.
For `CC(C)(C)Nc1c(-c2ccc(C#Cc3ccccc3)s2)nc2c(C(=O)O)nccn12` [Example 120, 3-(tert-butylamino)-2-(5-(phenylethynyl)thiophen-2-yl)imidazo[1,2-a]pyrazine-8-carboxylic acid], the IC50 was 3630 nM.
Compound `CC(C)(C)Nc1c(-c2ccc(C#Cc3ccc(O)cc3)s2)nc2cnccn12` [Example 121, 4-((5-(3-(tert-butylamino)imidazo[1,2-a]pyrazin-2-yl)thiophen-2-yl)ethynyl)phenol hydrochloride] has an IC50 of 2540 nM.
Work on `CC(C)(C)Nc1c(-c2ccc(C#Cc3cccc(O)c3)s2)nc2cnccn12` [Example 122, 3-((5-(3-(tert-butylamino)imidazo[1,2-a]pyrazin-2-yl)thiophen-2-yl)ethynyl)phenol] yielded an IC50 of 130 nM.
Work on `CC(C)(C)Nc1c(-c2ccc(C#Cc3cccc(N)c3)s2)nc2cnccn12` [Example 123, 2-(5-((3-aminophenyl)ethynyl)thiophen-2-yl)-N-tert-butylimidazo[1,2-a]pyrazin-3-amine hydrochloride] yielded an IC50 of 14 nM.
In the case of `CC(C)(C)Nc1c(-c2ccc(C#Cc3ccccc3N)s2)nc2cnccn12` [Example 124, 2-(5-((2-aminophenyl)ethynyl)thiophen-2-yl)-N-tert-butylimidazo[1,2-a]pyrazin-3-amine hydrochloride], the IC50 is reported as 170 nM.
`CC(C)(C)Nc1c(-c2ccc(C#Cc3ccccc3)s2)nc2c3ccccc3ccn12` [Example 125, N-tert-butyl-2-(5-(phenylethynyl)thiophen-2-yl)imidazo[2,1-a]isoquinolin-3-amine] gave an IC50 of 6520 nM.
`CC(C)(C)Nc1c(-c2ccc(C#Cc3ccccc3)nc2)nc2cnccn12` [Example 126, N-tert-butyl-2-(6-(phenylethynyl)pyridin-3-yl)imidazo[1,2-a]pyrazin-3-amine] was tested, and the IC50 was 3250 nM.
`CC(C)(C)Nc1c(-c2ccc(C#Cc3ccc(N)nc3)s2)nc2cnccn12` [Example 128, 2-(5-((6-aminopyridin-3-yl)ethynyl)thiophen-2-yl)-N-tert-butylimidazo[1,2-a]pyrazin-3-amine hydrochloride] showed an IC50 of 15600 nM.
With `CC(C)(C)Nc1c(-c2ccc(C#Cc3ncccn3)s2)nc2cnccn12` [Example 129, N-tert-butyl-2-(5-(pyrimidin-2-ylethynyl)thiophen-2-yl)imidazo[1,2-a]pyrazin-3-amine hydrochloride] the IC50 was 12 nM.
Work on `Cc1ccnc(C#Cc2ccc(-c3nc4cnccn4c3NC(C)(C)C)s2)c1` [Example 130, N-tert-butyl-2-(5-((4-methylpyridin-2-yl)ethynyl)thiophen-2-yl)imidazo[1,2-a]pyrazin-3-amine hydrochloride] yielded an IC50 of 37 nM.
`Cc1ccc(C#Cc2ccc(-c3nc4cnccn4c3NC(C)(C)C)s2)nc1` [Example 131, N-tert-butyl-2-(5-((5-methylpyridin-2-yl)ethynyl)thiophen-2-yl)imidazo[1,2-a]pyrazin-3-amine hydrochloride] showed an IC50 of 140 nM.
Work on `CC(C)(C)Nc1c(-c2ccc(C#Cc3ccncc3)s2)nc2ccccn12` [Example 132, N-tert-butyl-2-(5-(pyridin-4-ylethynyl)thiophen-2-yl)imidazo[1,2-a]pyridin-3-amine hydrochloride] yielded an IC50 of 16 nM.
Work on `CC(C)(C)Nc1c(-c2ccc(C#Cc3nccs3)s2)nc2cnccn12` [Example 133, N-tert-butyl-2-(5-(thiazol-2-ylethynyl)thiophen-2-yl)imidazo[1,2-a]pyrazin-3-amine] yielded an IC50 of 15 nM.
In the case of `Nc1c(-c2ccc(C#Cc3ccccn3)s2)nc2cnccn12` [Example 134, 2-(5-(pyridin-2-ylethynyl)thiophen-2-yl)imidazo[1,2-a]pyrazin-3-amine hydrochloride], the IC50 is reported as 570 nM.
For `Cc1ccc(C#Cc2ccc(-c3nc4cnccn4c3NC(C)(C)C)s2)s1` [Example 135, N-tert-butyl-2-(5-((5-methylthiophen-2-yl)ethynyl)thiophen-2-yl)imidazo[1,2-a]pyrazin-3-amine hydrochloride], the IC50 was 1200 nM.
In the case of `CC(C)(C)Nc1c(-c2ccc(C#Cc3cccc(N)n3)s2)nc2cnccn12` [Example 136, 2-(5-((6-aminopyridin-2-yl)ethynyl)thiophen-2-yl)-N-tert-butylimidazo[1,2-a]pyrazin-3-amine hydrochloride], the IC50 is reported as 13800 nM.
`Cc1ccsc1C#Cc1ccc(-c2nc3cnccn3c2NC(C)(C)C)s1` [Example 137, N-tert-butyl-2-(5-((3-methylthiophen-2-yl)ethynyl)thiophen-2-yl)imidazo[1,2-a]pyrazin-3-amine] showed an IC50 of 860 nM.
In the case of `CC(C)(C)Nc1c(-c2nc(C#Cc3ccccc3)cs2)nc2cnccn12` [Example 138, N-tert-butyl-2-(4-(phenylethynyl)thiazol-2-yl)imidazo[1,2-a]pyrazin-3-amine], the IC50 is reported as 15100 nM.
Compound `Cc1cccc(C#Cc2ccc(-c3nc4cnccn4c3NC(C)(C)C)s2)c1` [Example 139, N-tert-butyl-2-(5-(m-tolylethynyl)thiophen-2-yl)imidazo[1,2-a]pyrazin-3-amine] has an IC50 of 71 nM.
`CC(C)(C)Nc1c(-c2ccc(C#Cc3cccc(C#N)c3)s2)nc2cnccn12` [Example 140, 3-((5-(3-(tert-butylamino)imidazo[1,2-a]pyrazin-2-yl)thiophen-2-yl)ethynyl)benzonitrile hydrochloride] showed an IC50 of 26 nM.
`CC(C)(C)Nc1c(-c2ccc(C#Cc3ccccn3)s2)nc2ncccn12` [Example 141, N-tert-butyl-2-(5-(pyridin-2-ylethynyl)thiophen-2-yl)imidazo[1,2-a]pyrimidin-3-amine] was tested, and the IC50 was 2.8 nM.
Compound `CN(c1c(-c2ccc(C#Cc3ccccn3)s2)nc2cnccn12)C(C)(C)C` [Example 143, N-tert-butyl-N-methyl-2-(5-(pyridin-2-ylethynyl)thiophen-2-yl)imidazo[1,2-a]pyrazin-3-amine] has an IC50 of 3.2 nM.
Work on `CC(C)(C)Nc1c(-c2ccc(C#Cc3ccc(C#N)cc3)s2)nc2cnccn12` [Example 144, 4-((5-(3-(tert-butylamino)imidazo[1,2-a]pyrazin-2-yl)thiophen-2-yl)ethynyl)benzonitrile hydrochloride] yielded an IC50 of 3680 nM.
Compound `CC(C)(C)Nc1c(-c2cnc(C#Cc3ccccc3)s2)nc2cnccn12` [Example 146, N-tert-butyl-2-(2-(phenylethynyl)thiazol-5-yl)imidazo[1,2-a]pyrazin-3-amine] has an IC50 of 35 nM.
Compound `CC(C)(C)Nc1c(-c2ccc(C#Cc3cccc(-n4cccc4)c3)s2)nc2cnccn12` [Example 148, 2-(5-((3-(1H-pyrrol-1-yl)phenyl)ethynyl)thiophen-2-yl)-N-tert-butylimidazo[1,2-a]pyrazin-3-amine hydrochloride] has an IC50 of 330 nM.
`CC(C)(C)Nc1c(-c2ccc(C#Cc3cccc([N+](=O)[O-])c3)s2)nc2cnccn12` [Example 150, N-tert-butyl-2-(5-((3-nitrophenyl)ethynyl)thiophen-2-yl)imidazo[1,2-a]pyrazin-3-amine hydrochloride] was tested, and the IC50 was 110 nM.
With `CC(C)(C)Nc1c(-c2ccc(C#Cc3cscn3)s2)nc2cnccn12` [Example 152, N-tert-butyl-2-(5-(thiazol-4-ylethynyl)thiophen-2-yl)imidazo[1,2-a]pyrazin-3-amine hydrochloride] the IC50 was 23 nM.
`CC(C)(C)Nc1c(-c2ccc(C#Cc3ccccc3O)s2)nc2cnccn12` [Example 153, 2-((5-(3-(tert-butylamino)imidazo[1,2-a]pyrazin-2-yl)thiophen-2-yl)ethynyl)phenol] was tested, and the IC50 was 2990 nM.
Compound `CC(C)(C)Nc1c(-c2ccc(C#Cc3cccc(CN)c3)s2)nc2cnccn12` [Example 154, 2-(5-((3-(aminomethyl)phenyl)ethynyl)thiophen-2-yl)-N-tert-butylimidazo[1,2-a]pyrazin-3-amine] has an IC50 of 590 nM.
Work on `CC(C)(C)Nc1c(-c2ccc(C#Cc3ccsc3)s2)nc2cnccn12` [Example 156, N-tert-butyl-2-(5-(thiophen-3-ylethynyl)thiophen-2-yl)imidazo[1,2-a]pyrazin-3-amine hydrochloride] yielded an IC50 of 27 nM.
For `CN(C)c1cccc(C#Cc2ccc(-c3nc4cnccn4c3NC(C)(C)C)s2)c1` [Example 157, N-tert-butyl-2-(5-((3-(dimethylamino)phenyl)ethynyl)thiophen-2-yl)imidazo[1,2-a]pyrazin-3-amine hydrochloride], the IC50 was 1550 nM.
